For two compounds, polyQ density, DARPP-32 level and neurofilament level results are on record in patent US10596165B2, “Combination therapies” (resTORbio, Inc., priority 2018, dated 2020).

The test system of assay [1] is R6/2 brain slices. Nature of the assay: polyQ density (immunohistochemical detection of PolyQ inclusions) in R6/2 corticostriatal slice cultures. It is filed as cell-based, mouse. The conditions noted are these: DIV14 to DIV21, read at DIV21, vs DMSO treated R6/2 slices. The procedure:
(§1) Slice cultures were established according to described procedures. (L. Stoppini et al., J. Neurosci. Methods 37(2): 173-82 (1991) and N. Gogolla et al., Nat. Protoc. 1(3): 1165-71 (2006)). A particular cutting angle was utilized to produce brain slices with a preserved cortico-striatal pathway. Finally, slices were selected, placed on Millicel (Millipore, PICM03050) and cultured in 6-well dishes at 35° C. and 5% CO2 in the presence of 1 ml of culture medium.
(§2) Slices were treated with different mTOR inhibitors from DIV14 to DIV21. The culture medium was exchanged every second day, and drugs were added in the fresh culture medium. We used this protocol to evaluate the action of the following mTOR inhibitors: RTB101 (50 and 300 nM in DMSO), everolimus (250 nM in DMSO), CCG168 (300 nM in DMSO), and everolimus+RTB101 (250 and 10, 250and 30 and 250 and 50 nM in DMSO). […]
(§3) High resolution images were acquired on an upright Zeiss LSM700 confocal microscope, using a Plan-Neofluar 40x/1.3 oil immersion objective. For the quantification of the PolyQ density and DARPP-32/NeuF signal intensity, at least three confocal 3D stacks/slice were acquired in striatum for each experiment (five slices per condition), and analyzed using Imaris 4.2 (BitplaneAG) and Image J softwares. All data are expressed as mean±SEM. […]

Assay [2] deals with R6/2 brain slices. Nature of the assay: Striatal degeneration: DARPP-32 intensity and neurofilament levels in R6/2 slice cultures. It is filed as cell-based, mouse. Conditions: single low-concentrations (everolimus 250 nM; RTB101 50 nM), DIV21. The procedure:
as §1, §2, §3

For the compound `Cn1c(=O)n(-c2ccc(C(C)(C)C#N)cc2)c2c3cc(-c4cnc5ccccc5c4)ccc3ncc21` [RTB101, 2-methyl-2-[4-(3-methyl-2-oxo-8-quinolin-3-yl-2,3-dihydro-imidazo[4,5-c]quinolin-1-yl)-phenyl]-propionitrile], the polyQ density result in assay [1] (50 nM RTB101 single treatment) was “no effect”.

On to `CO[C@H]1C[C@@H]2CC[C@@H](C)[C@@](O)(O2)C(=O)C(=O)N2CCCC[C@H]2C(=O)O[C@H]([C@H](C)C[C@@H]2CC[C@@H](OCCO)[C@H](OC)C2)CC(=O)[C@H](C)/C=C(\C)[C@@H](O)[C@@H](OC)C(=O)[C@H](C)C[C@H](C)/C=C/C=C/C=C/1C` [everolimus, (1R,9S,12S,15R,16E,18R,19R,21R,23S,24E,26E,28E,30S,32S,35R)-1,18-dihydroxy-12-{(1R)-2-[(1S,3R,4R)-4-(2-hydroxyethoxy)-3-methoxycyclohexyl]-1-methylethyl}-19,30-dimethoxy-15,17,21,23,29,35-hexamethyl-11,36-dioxa-4-aza-tricyclo[30.3.1.04,9]hexatriaconta-16,24,26,28-tetraene-2,3,10,14,20-pentaone], for which the polyQ density entry in assay [1] (250 nM everolimus single treatment) is “no effect”. Also, in assay [2], the DARPP-32 level entry was “ineffective” and the neurofilament level entry is listed as “ineffective”.
